Assay results published in article PMC4890880 (ACS infectious diseases, 2016).
Read-outs that look alike come from different tables or passages of the source.

Test system: HepG2-A16-CD81EGFP cells
Settings: for IC50: read-out: Tox_IC50, HepG2 cytotoxicity
[1] = sheet 2nd round, maximal inhibition in dose response
[2] = 2nd round, maximal inhibition in dose series

| SMILES | IC50 (sheet "2nd round") [µM] | Tox_max_inhibition (%) (sheet "2nd round") | IC50 (sheet 2nd round) [µM] | Tox_max_inhibition (%) [1] [%] | further results |
| --- | --- | --- | --- | --- | --- |
| COc1ccc2c3c([nH]c2c1)[C@@H](CO)N(S(C)(=O)=O)CC31CCN(C(=O)Nc2ccccc2)CC1 [BRD-K31411295-001-01-9] | > 10 | 17 |  |  |  |
| C[C@@H]1CN([C@@H](C)CO)C(=O)c2cc(N(C)C)ccc2O[C@@H](C)CCCCO[C@H]1CN(C)S(=O)(=O)c1ccc(F)cc1 [BRD-K72173400-001-01-7] |  |  | > 10 | 6 |  |
| CCC(=O)N1CC2(CCN(C(=O)Nc3ccccc3F)CC2)c2c([nH]c3cc(OC)ccc23)[C@@H]1CO [BRD-K48749217-001-01-8] |  |  | > 10 | 5.53 |  |
| CCCNC(=O)N1[C@H](C#N)[C@H](c2ccc(C#Cc3ccc(F)cc3)cc2)[C@@H]1CO [BRD-K61371184-001-01-2] | > 10 | 22 |  |  |  |
| COc1ccccc1C#Cc1ccc([C@H]2[C@@H](C#N)N(C(=O)C3CCCCC3)[C@H]2CO)cc1 [BRD-K87117984-001-01-1] |  |  | 9.79 | 57 |  |
| CC(C)(C)[S+]([O-])N1Cc2cc(C(=O)NCc3ccc4c(c3)OCO4)nc(-c3cccc(-c4cc5ccccc5o4)c3)c2[C@H]1CCO (some centres unmarked) [BRD-K19560511-001-03-3] |  |  |  |  | Tox_max_inhibition (%) [2]: 12%; IC50 (2nd round, unit inferred): > 10 µM |
| O=C(C[C@@H]1C[C@@H]2c3cc(NC(=O)c4ccc5c(c4)OCO5)ccc3O[C@@H]2[C@@H](CO)O1)NCc1ccc(Oc2ccccc2)cc1 [BRD-K16956545-001-01-0] | > 10 | 5 |  |  |  |
| C[C@H](CO)N1C[C@H](C)[C@@H](CN(C)Cc2ccccc2)Oc2c(NC(=O)Cc3cn(C)c4ccccc34)cccc2C1=O [BRD-K71196168-001-01-1] | > 10 | 44 |  |  |  |
| COc1ccc(S(=O)(=O)Nc2ccc3c(c2)C(=O)N([C@H](C)CO)C[C@@H](C)[C@H](CN(C)Cc2ccc(C(F)(F)F)cc2)OCCCC[C@@H](C)O3)cc1 [BRD-K02689416-001-01-9] |  |  | > 10 | 12 |  |
| CN1C(=O)c2cc(NC(=O)c3ccc(C(F)(F)F)cc3)ccc2OC[C@H]2O[C@@H](CC(=O)NCc3ccc4c(c3)OCO4)CC[C@H]21 [BRD-K38534329-001-01-1] |  |  | 5.49 | 57 |  |
| O=C(Nc1cccc(F)c1)N1CCCCN2[C@H](CO)[C@@H](c3ccc(C#Cc4cccnc4)cc3)[C@@H]2C1 [BRD-K43947390-001-01-2] |  |  | > 10 | 5.34 |  |
| C[C@H]1CN([C@@H](C)CO)C(=O)c2cccc(NC(=O)NC3CCCCC3)c2O[C@H]1CN(C)Cc1ccc(C(F)(F)F)cc1 [BRD-K56432748-001-01-8] |  |  | > 10 | 10 |  |
| N#C[C@H]1[C@@H](c2ccc(-c3cccnc3)cc2)[C@@H](CO)N1C(=O)Nc1ccc(F)cc1 [BRD-K86354270-001-02-2] |  |  | > 10 | 14 |  |
| CCCNC(=O)N1[C@H](C#N)[C@H](c2ccc(-c3ccccc3F)cc2)[C@@H]1CO [BRD-K81164606-001-02-5] |  |  |  |  | Tox_max_inhibition (%) [2]: 43%; IC50 (2nd round, unit inferred): > 10 µM |
| CS(=O)(=O)N1[C@H](C#N)[C@H](c2ccc(C#Cc3cccc(F)c3)cc2)[C@H]1CO [BRD-K05470326-001-01-0] | > 10 | 10 |  |  |  |
| COc1ccc2c3c([nH]c2c1)[C@H](CO)N(C(C)=O)CC31CCN(C(=O)Nc2ccc(F)cc2F)CC1 [BRD-K07378992-001-01-6] | > 10 | 7 |  |  |  |
| COc1ccc(C(=O)N2C[C@@H]3[C@H](c4ccccc42)[C@H](CO)N3C(=O)Cc2ccccn2)cc1 [BRD-K13582094-001-01-2] |  |  | > 10 | 4 |  |
| CCCNC(=O)N1[C@H](CO)[C@H](c2ccc(C#Cc3cccc(F)c3)cc2)[C@@H]1C#N [BRD-K10089781-004-02-1] |  |  | > 10 | 13 |  |
| COc1ccc2c3c([nH]c2c1)[C@H](CO)N(C(C)=O)CC31CCN(C(=O)Nc2ccccc2F)CC1 [BRD-K30973842-001-02-5] |  |  | > 10 | 14 |  |
| O=C(Nc1ccc(F)cc1)N1C[C@@H]2[C@H](c3ccccc31)[C@@H](CO)N2Cc1ccccc1Cl [BRD-K95406835-001-01-9] |  |  | > 10 | 4.68 |  |
| C[C@H](CO)N1C[C@H](C)[C@@H](CN(C)S(=O)(=O)c2ccccc2)OCCCC[C@H](C)Oc2ccc(NC(=O)Nc3ccc4c(c3)OCO4)cc2C1=O [BRD-K78605373-001-01-5] |  |  |  |  | Tox_max_inhibition (%) [2]: 10%; IC50 (2nd round, unit inferred): > 10 µM |
| COc1cccc(S(=O)(=O)N2CCCCN3[C@@H](CO)[C@@H](c4ccc(C#CCC(C)C)cc4)[C@@H]3C2)c1 [BRD-K03006541-001-01-3] | > 10 | 5 |  |  |  |
